# Source: patent US6783985B1, “Gene disruption methodologies for drug target discovery” (Elitra Pharmaceuticals Inc., priority 2000, dated 2004)
# Tests used:
# [1] = tested on: S. cerevisiae bar-coded strains bearing heterozygous mutations in HIS3, TUB1, ALG7, and ERG11; settings: grown together in a mixed population; targets HIS3, TUB1, ALG7, ERG11 respectively; cited from earlier work
# [2] = tested on: wild type (diploid) CaHIS3 strain, CaHIS3 heterozygote strain and tetracycline promoter-regulated CaHIS3 GRACE strain; test: Target level variation whole cell assay: 3-AT sensitivity of CaHIS3 strains; format: cell-based, Candida albicans; settings: for sensitivity of partially repressed (minimally expressing) CaHIS3 GRACE strain relative to heterozygous CaHIS3 strain: intermediate 3-AT concentration, threshold tetracycline (FIG. 6C, 6D)
# Text: The data derived from these experiments clearly indicate that distinct levels of target gene products synthesized within the pathogen could be directly applied in whole cell assay based drug screens to identify novel antifungal compounds active against novel drug targets validated using the GRACE method.
# 3-AT is a competitive inhibitor of the enzyme encoded by CaHIS3, imidazoleglycerol phosphate dehydratase, and together serve as a model for a drug and drug target respectively. […] The phenotype observed is consistent with that expected in light of the predicted 7.5 fold overexpression of CaHIS3 determined by Northern bolt analysis (see FIG. 5). […] A third CaHIS3 expression level evaluated for differential sensitivity to 3-AT was produced by partial repression of the GRACE CaHIS3 strain using a threshold concentration of tetracycline 0.1% […].
# (§1) Moreover, these experiments clearly indicate how distinct levels of target gene products synthesized within the pathogen could be directly applied in whole cell assay based drug screens to identify novel antifungal compounds against those novel drug targets validated using the GRACE method.
# C. albicans = test: Sensitivity of C. albicans to selection antibiotics; format: cell-based, Candida albicans
# Text: Several art-known methods are available to create a heterozygote mutant. In less preferred embodiments, auxotrophic markers, such as but not limited to CaURA3, CaHIS3, CaLEU2, or CaTRP1, could be used for gene disruption if desired. However, the preferred method of heterozygote construction in diploid fungi employs a genetically modified dominant selectable marker. C. albicans is sensitive to the nucleoside-like antibiotic streptothricin at a concentration of 200 micrograms per milliliter. The presence of the Escherichia coli SAT1 gene within C. albicans allows acetylation of the drug rendering it nontoxic and permitting the strain to grow in the presence of streptothricin at a concentration of 200 micrograms per milliliter. Expression of the SAT1 gene in C. albicans is made possible by engineering the gene so that its DNA sequence is altered to conform to the genetic code of this organism and by providing a CaACT1 promoter (Morschhauser et al. (1998) Mol. Gen. Genet. 257:412-420) and a CaPCK1 terminator sequence (Leuker et al. (1997) Gene 192: 235-40). This genetically modified marker is referred to as CaSAT1 which is the subject of a copending United States nonprovisional application, filed Feb. 16, 2001. […]
# CaERG11 = settings: determined biochemically; cited from earlier work
# CaERG11 GRACE strain = test: Target level variation whole cell assay, CaERG11 GRACE strain; format: cell-based, Candida albicans
# Text: as §1
# CaALG7 GRACE strain = test: Target level variation whole cell assay, CaALG7 GRACE strain; format: cell-based, Candida albicans
# Text: as §1
# [3] = intermediate 3-AT concentration (FIG. 6B)
compound,measurement,setting,value
"Nc1nc[nH]n1 [3-AT, 3-aminotriazole]",sensitivity of the strain heterozygous for the compound's drug target versus other heterozygote bar-coded strains,[1],significantly greater sensitivity
same,phenotype of CaHIS3 GRACE strain overexpressing CaHIS3 (constitutive tetracycline promoter expression),[2]; 3-AT concentrations that completely inhibit wild type and heterozygote (FIG. 6A),resistance
same,growth of wild type and CaHIS3 heterozygote strains,[2]; inhibitory levels of 3-AT (FIG. 6A),completely inhibit growth
same,effect on wild type and tetracycline promoter-based overproducing CaHIS3 strains,[2]; [3],unable to effect
same,sensitivity of heterozygous CaHIS3 strain (haploinsufficient phenotype),[2]; [3],enhanced sensitivity
same,sensitivity of partially repressed (minimally expressing) CaHIS3 GRACE strain relative to heterozygous CaHIS3 strain,[2],enhanced drug sensitivity
same,sensitivity of partially repressed (minimally expressing) CaHIS3 GRACE strain relative to heterozygous CaHIS3 strain,[2]; listed as 3-aminotriazole,hypersensitivity
CCCCNC(=O)n1c(NC(=O)OC)nc2ccccc21 [benomyl],sensitivity of the strain heterozygous for the compound's drug target versus other heterozygote bar-coded strains,[1],significantly greater sensitivity
CN(CC[C@H](N)CC(=O)N[C@H]1C=C[C@H](n2ccc(N)nc2=O)O[C@@H]1C(=O)O)C(=N)N [blasticidin],sensitivity of C. albicans to the fungicidal compound,C. albicans,sensitive
OC(Cn1cncn1)(Cn1cncn1)c1ccc(F)cc1F [fluconazole],sensitivity of the strain heterozygous for the compound's drug target versus other heterozygote bar-coded strains,[1],significantly greater sensitivity
same,"mode of action, static or cidal",CaERG11,static
same,GRACE strain-specific phenotypes on increasing and decreasing expression of the drug target CaERG11,CaERG11 GRACE strain,drug resistance and sensitivity phenotypes
streptothricin,sensitivity of C. albicans to the antibiotic,C. albicans; streptothricin at 200 micrograms per milliliter,sensitive
tunicamycin,sensitivity of the strain heterozygous for the compound's drug target versus other heterozygote bar-coded strains,[1],significantly greater sensitivity
same,GRACE strain-specific phenotypes on increasing and decreasing expression of the drug target CaALG7,CaALG7 GRACE strain,drug resistance and sensitivity phenotypes
